Test results from the NIST ThermoML archive (doi:10.1016/j.jct.2011.01.014).

Assay: xn = mol fraction of the nth substance listed
Settings: 101 kPa, Liquid; for mass density: Vibrating tube method; for speed of sound: sound velocity cell

CC(=O)[O-].[NH3+]CCO [2-hydroxyethylammonium acetate] + CCO
Settings	mass density [kg/m3]	speed of sound [m/s]
288.15 K, x1 = 0.0497	830.092	1219.7
288.15 K, x1 = 0.101	862.917	1257.7
288.15 K, x1 = 0.201	917.271	1327
288.15 K, x1 = 0.3009	964.134	1410
288.15 K, x1 = 0.4057	1005.85	1470.2
288.15 K, x1 = 0.4946	1036.29	1529.9
288.15 K, x1 = 0.603	1068.79	1601.6
288.15 K, x1 = 0.6765	1088.47	1646.3
288.15 K, x1 = 0.7918	1116.27	1707.9
288.15 K, x1 = 0.8825	1135.66	1756.7
288.15 K, x1 = 0.9539	1148.76	1806.7
288.15 K, x1 = 1	1154.7	1817.2
290.65 K, x1 = 0.0497	828.024	1211.3
290.65 K, x1 = 0.101	860.918	1249.6
290.65 K, x1 = 0.201	915.381	1319.3
290.65 K, x1 = 0.3009	962.336	1402.9
290.65 K, x1 = 0.4057	1004.14	1463.2
290.65 K, x1 = 0.4946	1034.64	1523
290.65 K, x1 = 0.603	1067.23	1594.9
290.65 K, x1 = 0.6765	1086.9	1639.6
290.65 K, x1 = 0.7918	1114.76	1700.5
290.65 K, x1 = 0.8825	1134.02	1749.4
290.65 K, x1 = 0.9539	1147.23	1796
290.65 K, x1 = 1	1153.28	1810
293.15 K, x1 = 0.0497	825.955	1203
293.15 K, x1 = 0.101	858.918	1241.5
293.15 K, x1 = 0.201	913.49	1311.7
293.15 K, x1 = 0.3009	960.535	1395.7
293.15 K, x1 = 0.4057	1002.43	1456.2
293.15 K, x1 = 0.4946	1033	1516.3
293.15 K, x1 = 0.603	1065.67	1588.4
293.15 K, x1 = 0.6765	1085.33	1633.2
293.15 K, x1 = 0.7918	1113.26	1693.3
293.15 K, x1 = 0.8825	1132.52	1741.7
293.15 K, x1 = 0.9539	1145.67	1786.6
293.15 K, x1 = 1	1151.87	1803.2
295.65 K, x1 = 0.0497	823.881	1194.7
295.65 K, x1 = 0.101	856.913	1233.5
295.65 K, x1 = 0.201	911.596	1304
295.65 K, x1 = 0.3009	958.737	1388.5
295.65 K, x1 = 0.4057	1000.73	1449.2
295.65 K, x1 = 0.4946	1031.36	1509.6
295.65 K, x1 = 0.603	1064.1	1582
295.65 K, x1 = 0.6765	1083.81	1626.8
295.65 K, x1 = 0.7918	1111.76	1686.5
295.65 K, x1 = 0.8825	1131.06	1734.5
295.65 K, x1 = 0.9539	1144.09	1778
295.65 K, x1 = 1	1150.45	1796.8
298.15 K, x1 = 0.0497	821.798	1186.5
298.15 K, x1 = 0.101	854.902	1225.5
298.15 K, x1 = 0.201	909.701	1296.4
298.15 K, x1 = 0.3009	956.936	1381.3
298.15 K, x1 = 0.4057	999.015	1442.3
298.15 K, x1 = 0.4946	1029.72	1502.9
298.15 K, x1 = 0.603	1062.53	1575.6
298.15 K, x1 = 0.6765	1082.31	1620.4
298.15 K, x1 = 0.7918	1110.26	1679.8
298.15 K, x1 = 0.8825	1129.61	1727.5
298.15 K, x1 = 0.9539	1142.5	1769.9
298.15 K, x1 = 1	1149.04	1790.7
300.65 K, x1 = 0.0497	819.712	1178.2
300.65 K, x1 = 0.101	852.887	1217.5
300.65 K, x1 = 0.201	907.8	1288.8
300.65 K, x1 = 0.3009	955.132	1374.2
300.65 K, x1 = 0.4057	997.306	1435.3
300.65 K, x1 = 0.4946	1028.07	1496.2
300.65 K, x1 = 0.603	1060.96	1569.2
300.65 K, x1 = 0.6765	1080.8	1614.2
300.65 K, x1 = 0.7918	1108.76	1673.3
300.65 K, x1 = 0.8825	1128.15	1720.9
300.65 K, x1 = 0.9539	1141.04	1762.4
300.65 K, x1 = 1	1147.63	1784.8
303.15 K, x1 = 0.0497	817.614	1170
303.15 K, x1 = 0.101	850.864	1209.5
303.15 K, x1 = 0.201	905.897	1281.2
303.15 K, x1 = 0.3009	953.327	1367
303.15 K, x1 = 0.4057	995.593	1428.4
303.15 K, x1 = 0.4946	1026.43	1489.6
303.15 K, x1 = 0.603	1059.37	1562.8
303.15 K, x1 = 0.6765	1079.28	1608
303.15 K, x1 = 0.7918	1107.26	1667
303.15 K, x1 = 0.8825	1126.69	1714.5
303.15 K, x1 = 0.9539	1139.62	1755.4
303.15 K, x1 = 1	1146.22	1779
305.65 K, x1 = 0.0497	815.509	1161.8
305.65 K, x1 = 0.101	848.835	1201.5
305.65 K, x1 = 0.201	903.988	1273.6
305.65 K, x1 = 0.3009	951.519	1359.9
305.65 K, x1 = 0.4057	993.881	1421.5
305.65 K, x1 = 0.4946	1024.78	1483
305.65 K, x1 = 0.603	1057.78	1556.5
305.65 K, x1 = 0.6765	1077.76	1601.8
305.65 K, x1 = 0.7918	1105.75	1660.8
305.65 K, x1 = 0.8825	1125.23	1708.2
305.65 K, x1 = 0.9539	1138.2	1748.7
305.65 K, x1 = 1	1144.8	1773.4
308.15 K, x1 = 0.0497	813.395	1153.6
308.15 K, x1 = 0.101	846.797	1193.5
308.15 K, x1 = 0.201	902.073	1266
308.15 K, x1 = 0.3009	949.706	1352.8
308.15 K, x1 = 0.4057	992.164	1414.7
308.15 K, x1 = 0.4946	1023.13	1476.4
308.15 K, x1 = 0.603	1056.17	1550.2
308.15 K, x1 = 0.6765	1076.23	1595.6
308.15 K, x1 = 0.7918	1104.25	1654.6
308.15 K, x1 = 0.8825	1123.77	1702.2
308.15 K, x1 = 0.9539	1136.79	1742.2
308.15 K, x1 = 1	1143.39	1767.9
310.65 K, x1 = 0.0497	811.269	1145.4
310.65 K, x1 = 0.101	844.752	1185.5
310.65 K, x1 = 0.201	900.153	1258.5
310.65 K, x1 = 0.3009	947.892	1345.7
310.65 K, x1 = 0.4057	990.442	1407.8
310.65 K, x1 = 0.4946	1021.48	1469.7
310.65 K, x1 = 0.603	1054.53	1544
310.65 K, x1 = 0.6765	1074.71	1589.6
310.65 K, x1 = 0.7918	1102.76	1648.5
310.65 K, x1 = 0.8825	1122.31	1696.2
310.65 K, x1 = 0.9539	1135.37	1735.9
310.65 K, x1 = 1	1141.96	1762.5
313.15 K, x1 = 0.0497	809.131	1137.2
313.15 K, x1 = 0.101	842.694	1177.6
313.15 K, x1 = 0.201	898.225	1251
313.15 K, x1 = 0.3009	946.069	1338.7
313.15 K, x1 = 0.4057	988.723	1401
313.15 K, x1 = 0.4946	1019.83	1463.2
313.15 K, x1 = 0.603	1052.87	1537.7
313.15 K, x1 = 0.6765	1073.17	1583.5
313.15 K, x1 = 0.7918	1101.31	1642.5
313.15 K, x1 = 0.8825	1120.85	1690.2
313.15 K, x1 = 0.9539	1133.96	1729.9
313.15 K, x1 = 1	1140.55	1757.2
315.65 K, x1 = 0.0497	806.984	1129.1
315.65 K, x1 = 0.101	840.628	1169.7
315.65 K, x1 = 0.201	896.29	1243.5
315.65 K, x1 = 0.3009	944.245	1331.6
315.65 K, x1 = 0.4057	986.994	1394.2
315.65 K, x1 = 0.4946	1018.18	1456.6
315.65 K, x1 = 0.603	1051.28	1531.4
315.65 K, x1 = 0.6765	1071.63	1577.4
315.65 K, x1 = 0.7918	1099.86	1636.6
315.65 K, x1 = 0.8825	1119.38	1684.4
315.65 K, x1 = 0.9539	1132.54	1723.9
315.65 K, x1 = 1	1139.18	1751.9
318.15 K, x1 = 0.0497	804.825	1120.9
318.15 K, x1 = 0.101	838.551	1161.8
318.15 K, x1 = 0.201	894.347	1235.9
318.15 K, x1 = 0.3009	942.413	1324.5
318.15 K, x1 = 0.4057	985.266	1387.3
318.15 K, x1 = 0.4946	1016.52	1450
318.15 K, x1 = 0.603	1049.69	1525.2
318.15 K, x1 = 0.6765	1070.09	1571.3
318.15 K, x1 = 0.7918	1098.4	1630.7
318.15 K, x1 = 0.8825	1117.9	1678.6
318.15 K, x1 = 0.9539	1131.12	1718.1
318.15 K, x1 = 1	1137.82	1746.5
320.65 K, x1 = 0.0497	802.647	1112.8
320.65 K, x1 = 0.101	836.46	1153.9
320.65 K, x1 = 0.201	892.395	1228.4
320.65 K, x1 = 0.3009	940.573	1317.5
320.65 K, x1 = 0.4057	983.53	1380.5
320.65 K, x1 = 0.4946	1014.85	1443.5
320.65 K, x1 = 0.603	1048.1	1519
320.65 K, x1 = 0.6765	1068.53	1565.3
320.65 K, x1 = 0.7918	1096.93	1624.8
320.65 K, x1 = 0.8825	1116.49	1672.8
320.65 K, x1 = 0.9539	1129.69	1712.4
320.65 K, x1 = 1	1136.45	1741.3
323.15 K, x1 = 0.0497	800.468	1104.7
323.15 K, x1 = 0.101	834.368	1146
323.15 K, x1 = 0.201	890.443	1221
323.15 K, x1 = 0.3009	938.735	1310.5
323.15 K, x1 = 0.4057	981.801	1373.7
323.15 K, x1 = 0.4946	1013.19	1437
323.15 K, x1 = 0.603	1046.54	1512.7
323.15 K, x1 = 0.6765	1066.98	1559.4
323.15 K, x1 = 0.7918	1095.47	1618.9
323.15 K, x1 = 0.8825	1115.06	1667.2
323.15 K, x1 = 0.9539	1128.27	1706.7
323.15 K, x1 = 1	1135.08	1736
